Source: ChEMBL document CHEMBL3991601, “The target landscape of clinical kinase drugs” (Science, 2017)
pKd: −log10 of the molar value. Calls of active or inactive are those of the source. For most assays here, no stated cut-off is given here; in the data, actives have a measured Kd and inactives only a lower limit.

Tests used:
Activin receptor type-1 = target: T1, Activin receptor type-1 (Homo sapiens, UniProt Q04771)
T1 sequence (Q04771 whole entry): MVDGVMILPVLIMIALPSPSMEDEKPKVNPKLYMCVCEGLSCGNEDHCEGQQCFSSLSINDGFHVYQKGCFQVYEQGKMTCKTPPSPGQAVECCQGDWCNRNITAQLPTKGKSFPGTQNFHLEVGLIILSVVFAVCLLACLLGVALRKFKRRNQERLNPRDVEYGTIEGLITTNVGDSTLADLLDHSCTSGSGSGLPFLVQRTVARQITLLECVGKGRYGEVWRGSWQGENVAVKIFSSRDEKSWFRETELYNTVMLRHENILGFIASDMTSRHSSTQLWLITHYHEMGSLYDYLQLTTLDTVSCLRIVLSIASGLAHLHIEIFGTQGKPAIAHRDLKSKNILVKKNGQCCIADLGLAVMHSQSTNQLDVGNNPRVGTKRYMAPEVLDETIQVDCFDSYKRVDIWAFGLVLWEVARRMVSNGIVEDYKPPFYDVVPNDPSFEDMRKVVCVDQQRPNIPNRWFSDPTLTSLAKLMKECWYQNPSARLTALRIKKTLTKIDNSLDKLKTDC

[1] = target: T2, Serine/threonine-protein kinase A-Raf (Homo sapiens, UniProt P10398)
T2 sequence (P10398 whole entry): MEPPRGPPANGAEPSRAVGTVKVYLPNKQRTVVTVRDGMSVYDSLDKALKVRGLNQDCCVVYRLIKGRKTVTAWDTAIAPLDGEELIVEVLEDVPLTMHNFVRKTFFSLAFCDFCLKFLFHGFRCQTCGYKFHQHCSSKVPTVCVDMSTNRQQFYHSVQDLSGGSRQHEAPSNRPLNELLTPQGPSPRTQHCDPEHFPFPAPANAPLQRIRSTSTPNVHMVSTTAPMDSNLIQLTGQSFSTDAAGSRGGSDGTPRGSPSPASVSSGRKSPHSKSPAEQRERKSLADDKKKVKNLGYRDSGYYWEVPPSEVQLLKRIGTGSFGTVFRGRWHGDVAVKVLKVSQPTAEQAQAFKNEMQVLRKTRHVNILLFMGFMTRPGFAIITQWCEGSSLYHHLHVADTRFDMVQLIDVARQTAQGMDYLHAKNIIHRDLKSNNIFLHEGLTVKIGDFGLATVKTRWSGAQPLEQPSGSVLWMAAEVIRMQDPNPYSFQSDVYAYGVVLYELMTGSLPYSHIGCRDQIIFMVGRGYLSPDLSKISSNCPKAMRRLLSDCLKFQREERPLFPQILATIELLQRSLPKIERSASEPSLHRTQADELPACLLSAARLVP

[2] = target: Calcium/calmodulin-dependent protein kinase type II subunit gamma (Homo sapiens, UniProt Q13555)
[3] = target: T3, Calcium/calmodulin-dependent protein kinase type IV (Homo sapiens, UniProt Q16566)
T3 sequence (Q16566 whole entry): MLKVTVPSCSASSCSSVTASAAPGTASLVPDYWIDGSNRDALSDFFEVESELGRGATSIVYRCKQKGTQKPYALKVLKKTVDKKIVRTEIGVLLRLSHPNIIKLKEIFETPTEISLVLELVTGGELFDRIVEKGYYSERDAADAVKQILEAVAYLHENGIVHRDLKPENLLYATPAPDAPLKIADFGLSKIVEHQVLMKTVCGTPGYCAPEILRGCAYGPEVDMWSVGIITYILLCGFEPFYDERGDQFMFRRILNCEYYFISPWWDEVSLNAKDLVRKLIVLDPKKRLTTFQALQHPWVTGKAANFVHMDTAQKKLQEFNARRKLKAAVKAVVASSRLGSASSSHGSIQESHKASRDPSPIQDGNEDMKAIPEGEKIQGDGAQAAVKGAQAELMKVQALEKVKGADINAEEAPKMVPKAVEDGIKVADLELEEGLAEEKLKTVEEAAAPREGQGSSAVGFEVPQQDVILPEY

[4] = target: Dual specificity tyrosine-phosphorylation-regulated kinase 1A (Homo sapiens, UniProt Q13627)
[5] = target: T4, RNA cytidine acetyltransferase (Homo sapiens, UniProt Q9H0A0)
T4 sequence (Q9H0A0 whole entry): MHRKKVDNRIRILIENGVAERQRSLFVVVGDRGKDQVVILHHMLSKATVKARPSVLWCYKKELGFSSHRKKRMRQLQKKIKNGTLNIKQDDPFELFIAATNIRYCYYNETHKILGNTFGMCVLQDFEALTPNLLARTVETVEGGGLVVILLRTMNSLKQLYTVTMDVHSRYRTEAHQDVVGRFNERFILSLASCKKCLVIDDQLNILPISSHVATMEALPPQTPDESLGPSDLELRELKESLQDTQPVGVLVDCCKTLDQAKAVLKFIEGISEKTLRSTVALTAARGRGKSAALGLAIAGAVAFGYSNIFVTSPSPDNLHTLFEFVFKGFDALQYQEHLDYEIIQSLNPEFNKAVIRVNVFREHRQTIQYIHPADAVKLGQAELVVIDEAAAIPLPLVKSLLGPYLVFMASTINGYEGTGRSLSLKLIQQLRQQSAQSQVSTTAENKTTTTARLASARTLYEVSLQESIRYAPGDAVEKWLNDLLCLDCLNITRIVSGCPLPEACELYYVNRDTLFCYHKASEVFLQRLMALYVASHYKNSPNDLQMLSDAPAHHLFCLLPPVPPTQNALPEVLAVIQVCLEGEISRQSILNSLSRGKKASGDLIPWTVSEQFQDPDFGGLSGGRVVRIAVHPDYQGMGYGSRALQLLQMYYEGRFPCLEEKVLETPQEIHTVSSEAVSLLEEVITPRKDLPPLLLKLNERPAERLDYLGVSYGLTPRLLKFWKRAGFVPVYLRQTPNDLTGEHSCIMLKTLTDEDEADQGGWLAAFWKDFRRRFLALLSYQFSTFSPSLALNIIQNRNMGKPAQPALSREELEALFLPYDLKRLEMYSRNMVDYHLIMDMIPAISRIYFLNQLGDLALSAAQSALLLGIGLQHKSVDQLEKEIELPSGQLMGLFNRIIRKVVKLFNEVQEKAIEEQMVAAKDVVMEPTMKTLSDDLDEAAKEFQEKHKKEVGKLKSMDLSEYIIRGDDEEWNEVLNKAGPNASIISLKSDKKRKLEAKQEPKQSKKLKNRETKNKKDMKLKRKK

[6] = target: cAMP-dependent protein kinase catalytic subunit alpha (Homo sapiens, UniProt P17612)
[7] = target: STE20-like serine/threonine-protein kinase (Homo sapiens, UniProt Q9H2G2)
DNA topoisomerase 2-beta = DNA topoisomerase 2-beta (Homo sapiens, UniProt Q02880)
[8] = target: Elongation factor Tu, mitochondrial (Homo sapiens, UniProt P49411)

Chain of Calcium/calmodulin-dependent protein kinase type II subunit gamma (Q13555 whole entry): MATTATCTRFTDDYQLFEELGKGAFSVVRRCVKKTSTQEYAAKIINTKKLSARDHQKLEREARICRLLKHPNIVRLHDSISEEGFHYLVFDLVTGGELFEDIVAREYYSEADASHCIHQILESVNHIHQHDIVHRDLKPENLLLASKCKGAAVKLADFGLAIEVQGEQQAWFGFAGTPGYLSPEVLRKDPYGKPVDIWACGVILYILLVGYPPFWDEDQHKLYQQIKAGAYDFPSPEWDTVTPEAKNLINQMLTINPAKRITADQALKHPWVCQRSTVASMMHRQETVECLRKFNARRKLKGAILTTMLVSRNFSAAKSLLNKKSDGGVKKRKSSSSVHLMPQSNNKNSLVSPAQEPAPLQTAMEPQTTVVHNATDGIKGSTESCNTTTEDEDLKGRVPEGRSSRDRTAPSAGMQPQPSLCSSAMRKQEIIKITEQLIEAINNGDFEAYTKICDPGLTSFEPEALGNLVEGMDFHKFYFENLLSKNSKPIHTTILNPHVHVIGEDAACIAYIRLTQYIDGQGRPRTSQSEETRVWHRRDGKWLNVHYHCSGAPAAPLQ
Chain of STE20-like serine/threonine-protein kinase (Q9H2G2 whole entry): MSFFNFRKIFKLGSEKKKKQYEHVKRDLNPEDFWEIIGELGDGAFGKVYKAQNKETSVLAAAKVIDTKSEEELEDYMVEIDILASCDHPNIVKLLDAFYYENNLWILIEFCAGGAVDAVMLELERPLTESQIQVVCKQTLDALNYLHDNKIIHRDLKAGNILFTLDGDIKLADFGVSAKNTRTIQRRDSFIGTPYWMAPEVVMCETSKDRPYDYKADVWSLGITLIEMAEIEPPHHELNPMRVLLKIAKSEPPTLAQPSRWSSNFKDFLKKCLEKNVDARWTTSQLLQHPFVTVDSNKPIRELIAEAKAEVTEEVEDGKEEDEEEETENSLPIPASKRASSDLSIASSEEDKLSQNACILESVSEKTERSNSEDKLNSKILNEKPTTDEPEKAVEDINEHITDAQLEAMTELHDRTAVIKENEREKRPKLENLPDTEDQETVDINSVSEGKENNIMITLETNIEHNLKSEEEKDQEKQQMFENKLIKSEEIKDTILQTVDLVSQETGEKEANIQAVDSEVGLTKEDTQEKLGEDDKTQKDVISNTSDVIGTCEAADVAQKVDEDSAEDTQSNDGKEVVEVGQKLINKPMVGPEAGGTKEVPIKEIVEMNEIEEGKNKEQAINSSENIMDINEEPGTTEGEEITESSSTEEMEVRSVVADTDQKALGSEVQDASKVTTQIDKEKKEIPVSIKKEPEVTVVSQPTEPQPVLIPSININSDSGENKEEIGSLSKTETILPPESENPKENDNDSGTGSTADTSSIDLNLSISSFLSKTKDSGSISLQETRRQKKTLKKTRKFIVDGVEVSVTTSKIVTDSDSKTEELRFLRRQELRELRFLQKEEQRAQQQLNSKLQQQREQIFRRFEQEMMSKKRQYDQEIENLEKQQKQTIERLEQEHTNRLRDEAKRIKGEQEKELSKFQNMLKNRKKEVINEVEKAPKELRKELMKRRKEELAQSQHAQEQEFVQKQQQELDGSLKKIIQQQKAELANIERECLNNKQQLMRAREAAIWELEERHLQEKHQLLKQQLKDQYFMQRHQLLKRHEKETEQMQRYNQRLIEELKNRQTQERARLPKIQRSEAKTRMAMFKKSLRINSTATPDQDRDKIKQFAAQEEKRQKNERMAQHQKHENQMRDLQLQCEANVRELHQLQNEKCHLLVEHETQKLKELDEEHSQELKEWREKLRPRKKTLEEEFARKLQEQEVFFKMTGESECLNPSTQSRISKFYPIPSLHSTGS
Chain of DNA topoisomerase 2-beta (Q02880 whole entry): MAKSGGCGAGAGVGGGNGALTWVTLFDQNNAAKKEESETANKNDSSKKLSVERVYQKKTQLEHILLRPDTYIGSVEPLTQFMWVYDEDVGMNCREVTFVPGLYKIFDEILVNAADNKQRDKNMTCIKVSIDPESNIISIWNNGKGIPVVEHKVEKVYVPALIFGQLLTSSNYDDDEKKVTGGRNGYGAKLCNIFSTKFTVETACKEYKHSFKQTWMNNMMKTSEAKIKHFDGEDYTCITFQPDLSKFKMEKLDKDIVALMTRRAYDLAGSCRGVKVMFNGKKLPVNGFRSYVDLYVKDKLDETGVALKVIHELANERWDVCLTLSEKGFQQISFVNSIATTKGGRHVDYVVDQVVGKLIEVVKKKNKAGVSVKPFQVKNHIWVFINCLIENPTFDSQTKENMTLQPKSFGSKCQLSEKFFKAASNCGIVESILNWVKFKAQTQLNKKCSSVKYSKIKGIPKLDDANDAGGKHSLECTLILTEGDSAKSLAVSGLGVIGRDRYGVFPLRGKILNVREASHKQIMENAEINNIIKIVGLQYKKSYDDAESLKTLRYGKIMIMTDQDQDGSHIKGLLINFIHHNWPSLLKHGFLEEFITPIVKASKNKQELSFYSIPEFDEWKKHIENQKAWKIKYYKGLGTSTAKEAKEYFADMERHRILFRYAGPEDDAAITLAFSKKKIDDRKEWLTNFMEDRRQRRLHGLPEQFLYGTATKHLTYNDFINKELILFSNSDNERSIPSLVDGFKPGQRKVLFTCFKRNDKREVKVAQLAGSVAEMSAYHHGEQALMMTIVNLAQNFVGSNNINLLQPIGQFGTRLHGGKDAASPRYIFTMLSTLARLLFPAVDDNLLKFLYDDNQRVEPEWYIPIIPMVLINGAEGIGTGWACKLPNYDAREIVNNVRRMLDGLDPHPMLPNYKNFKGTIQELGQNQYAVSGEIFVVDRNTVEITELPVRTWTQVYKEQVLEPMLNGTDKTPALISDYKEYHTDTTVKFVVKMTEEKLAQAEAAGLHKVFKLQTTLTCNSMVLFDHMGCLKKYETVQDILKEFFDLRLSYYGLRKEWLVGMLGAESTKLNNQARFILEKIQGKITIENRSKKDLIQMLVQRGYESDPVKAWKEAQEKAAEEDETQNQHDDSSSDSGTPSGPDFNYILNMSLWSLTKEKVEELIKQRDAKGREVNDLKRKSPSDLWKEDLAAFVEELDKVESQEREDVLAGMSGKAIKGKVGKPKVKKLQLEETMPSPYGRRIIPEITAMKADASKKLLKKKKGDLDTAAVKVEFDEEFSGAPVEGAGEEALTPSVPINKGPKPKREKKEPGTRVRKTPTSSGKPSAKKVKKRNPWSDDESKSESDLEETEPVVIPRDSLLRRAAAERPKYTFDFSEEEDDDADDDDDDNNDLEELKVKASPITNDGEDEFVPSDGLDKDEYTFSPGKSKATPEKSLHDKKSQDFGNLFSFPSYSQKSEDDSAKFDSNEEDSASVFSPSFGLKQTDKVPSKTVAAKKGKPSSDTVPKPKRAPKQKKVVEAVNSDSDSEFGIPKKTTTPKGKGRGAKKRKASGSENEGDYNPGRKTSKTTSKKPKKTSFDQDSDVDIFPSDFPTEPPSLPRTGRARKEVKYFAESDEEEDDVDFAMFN

SMILES	Kd (Activin receptor type-1)	Kd [1]	Kd [2]	Kd [3]	Kd [4]	Kd [5]	Kd [6]	Kd [7]	Kd (DNA topoisomerase 2-beta)	Kd [8]	pKd [8]
Cn1cc(-c2[nH]c3cc(NC(=O)[C@H](N)C4CCCCC4)cc4c3c2C=NNC4=O)cn1	> 30 µM (inactive)	> 30 µM (inactive)	> 30 µM (inactive)	> 30 µM (inactive)	> 30 µM (inactive)	> 30 µM (inactive)	> 30 µM (inactive)	> 30 µM (inactive)	> 30 µM (inactive)	> 30 µM (inactive)	
NC(=O)c1ccc(N(C(N)=O)c2c(F)cccc2F)nc1-c1ccc(F)cc1F [VX-702]	> 30 µM (inactive)	> 30 µM (inactive)	> 30 µM (inactive)	> 30 µM (inactive)	> 30 µM (inactive)	> 30 µM (inactive)	> 30 µM (inactive)	> 30 µM (inactive)	> 30 µM (inactive)	> 30 µM (inactive)	
CCc1nc(C(N)=O)c(Nc2ccc(N3CCC(N4CCN(C)CC4)CC3)c(OC)c2)nc1NC1CCOCC1 [GILTERITINIB]	0.039 µM (active)	> 30 µM (inactive)	0.169 µM (active)	0.421 µM (active)	> 30 µM (inactive)	> 30 µM (inactive)	> 30 µM (inactive)	0.068 µM (active)	> 30 µM (inactive)		6.33
C=CC(=O)Nc1cccc(Nc2nc(Nc3ccc(N4CCN(C(C)=O)CC4)cc3OC)ncc2C(F)(F)F)c1 [ROCILETINIB]	> 30 µM (inactive)	> 30 µM (inactive)	> 30 µM (inactive)	> 30 µM (inactive)	> 30 µM (inactive)	> 30 µM (inactive)	> 30 µM (inactive)	> 30 µM (inactive)	> 30 µM (inactive)	> 30 µM (inactive)	
O=C(NOC[C@H](O)CO)c1ccc(F)c(F)c1Nc1ccc(I)cc1F [MIRDAMETINIB]	> 30 µM (inactive)	> 30 µM (inactive)	> 30 µM (inactive)	> 30 µM (inactive)	> 30 µM (inactive)	> 30 µM (inactive)	> 30 µM (inactive)	> 30 µM (inactive)	> 30 µM (inactive)	> 30 µM (inactive)	
O=C(NC[C@H](O)CO)c1ccncc1Nc1ccc(I)cc1F [PIMASERTIB]	> 30 µM (inactive)	> 30 µM (inactive)	> 30 µM (inactive)	> 30 µM (inactive)	> 30 µM (inactive)	> 30 µM (inactive)	> 30 µM (inactive)	> 30 µM (inactive)	> 30 µM (inactive)	> 30 µM (inactive)	
Cc1cc(-c2cc(OC(=O)c3ccccc3)ccc2Cl)cc2nnc(Nc3ccc(OCCN4CCCC4)cc3)nc12 [TG100-801]	> 30 µM (inactive)	> 30 µM (inactive)	> 30 µM (inactive)	> 30 µM (inactive)	> 30 µM (inactive)	> 30 µM (inactive)	> 30 µM (inactive)	> 30 µM (inactive)	> 30 µM (inactive)	> 30 µM (inactive)	
O=C(Nc1ccc(OC(F)(F)F)cc1)c1sccc1NCc1ccnc2ccccc12 [OSI-930]	> 30 µM (inactive)	> 30 µM (inactive)	> 30 µM (inactive)	> 30 µM (inactive)	> 30 µM (inactive)	> 30 µM (inactive)	> 30 µM (inactive)	> 30 µM (inactive)	> 30 µM (inactive)	> 30 µM (inactive)	
C=CCN(/C=C1/C(=O)O[C@H](COC)[C@@]2(C)C1=C(O)C(=O)C1=C2[C@H](OC(C)=O)C[C@]2(C)C(=O)CC[C@@H]12)CC=C [SONOLISIB]	> 30 µM (inactive)	> 30 µM (inactive)	> 30 µM (inactive)	> 30 µM (inactive)	> 30 µM (inactive)	> 30 µM (inactive)	> 30 µM (inactive)	> 30 µM (inactive)	> 30 µM (inactive)	> 30 µM (inactive)	
COc1cc2nccc(Oc3ccc(NC(=O)C4(C(=O)Nc5ccc(F)cc5)CC4)cc3)c2cc1OC [CABOZANTINIB]	> 30 µM (inactive)	> 30 µM (inactive)	> 30 µM (inactive)	> 30 µM (inactive)	> 30 µM (inactive)	> 30 µM (inactive)	> 30 µM (inactive)	> 30 µM (inactive)	> 30 µM (inactive)	> 30 µM (inactive)	
C[C@@H]1COC(Nc2ccc3ncnc(Nc4ccc(OCc5nccs5)c(Cl)c4)c3c2)=N1 [VARLITINIB]	> 30 µM (inactive)	> 30 µM (inactive)	> 30 µM (inactive)	> 30 µM (inactive)	> 30 µM (inactive)	> 30 µM (inactive)	> 30 µM (inactive)	> 30 µM (inactive)	> 30 µM (inactive)	> 30 µM (inactive)	
Cc1c(NC(=O)OC[C@@H]2COCCN2)cn2ncnc(Nc3ccc4c(cnn4Cc4cccc(F)c4)c3)c12 [AC-480]	> 30 µM (inactive)	> 30 µM (inactive)	> 30 µM (inactive)	> 30 µM (inactive)	> 30 µM (inactive)	> 30 µM (inactive)	> 30 µM (inactive)	> 30 µM (inactive)	> 30 µM (inactive)	> 30 µM (inactive)	
COc1ccc(-c2ccc3ncc4c(c3c2)n(-c2ccc(N3CCNCC3)c(C(F)(F)F)c2)c(=O)n4C)cn1 [BGT-226 FREE BASE]	> 30 µM (inactive)	> 30 µM (inactive)	> 30 µM (inactive)	> 30 µM (inactive)	0.922 µM (active)	> 30 µM (inactive)	> 30 µM (inactive)	> 30 µM (inactive)	> 30 µM (inactive)	> 30 µM (inactive)	
